Assay results as given in US20030064895A1, “Genes for s-adenosyl l-methionine: jasmonic acid carboxyl methyltransferase and a method for the development of pathogen-and stress-resistant plants using the genes” (priority 2000, published 2003).
Entries after “also recorded” stand apart in the source; their conditions may differ.

Experiments:
JMT enzyme (GST-JMT) = biological target: T1, JMT enzyme (GST-JMT) (Arabidopsis thaliana, UniProt Q9AR07); assay: Substrate specificity of fusion enzyme protein GST-JMT with SAM / [14C]SAM; assay type: biochemical; details: reaction with JA defined to be 100%
T1 construct: it could be noted that this selected cDNA clone is a full-length cDNA clone; made in house; host or cells: E. coli BL21 (pGEX-2T, plasmid pGST-JMT)
T1 sequence (Q9AR07 1-389): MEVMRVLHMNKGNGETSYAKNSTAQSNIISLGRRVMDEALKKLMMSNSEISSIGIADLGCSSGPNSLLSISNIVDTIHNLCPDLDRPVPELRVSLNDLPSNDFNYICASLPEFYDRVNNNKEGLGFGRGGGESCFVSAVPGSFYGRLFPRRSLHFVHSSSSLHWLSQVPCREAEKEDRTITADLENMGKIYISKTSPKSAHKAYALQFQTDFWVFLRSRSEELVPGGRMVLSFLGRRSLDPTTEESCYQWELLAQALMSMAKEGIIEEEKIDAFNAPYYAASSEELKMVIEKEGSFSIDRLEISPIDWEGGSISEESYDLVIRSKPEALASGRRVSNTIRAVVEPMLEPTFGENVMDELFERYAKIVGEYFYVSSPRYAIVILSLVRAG

[1] = biological target: T2, jasmonic acid carboxyl methyltransferase (Arabidopsis thaliana, UniProt Q9AR07); assay: Kinetic parameters of recombinant JMT protein (Lineweaver-Burk plot); assay type: biochemical; details: named substance as substrate of recombinant JMT; for Km: SAM and JA as substrates
T2 construct: it could be noted that this selected cDNA clone is a full-length cDNA clone; made in house; host or cells: E. coli BL21 (pGEX-2T, plasmid pGST-JMT)
T2 sequence (Q9AR07 1-389): T1 sequence (Q9AR07 1-389)

[2] = tested on: pathogens belonging to Phytium genus; details: treatment at the level of 130 μM; cited from earlier work

Molecule | reactivity as methyl acceptor substrate of JMT enzyme (JMT enzyme (GST-JMT)) | Kcat [1] [s⁻¹] | Vm [1] [nmol/min] | Km [1] [µM] | effect on the growth of pathogen [2]
O=C(O)c1ccccc1 [BA, benzoic acid] | substantially not react; also recorded: substantially not proceeded | – | – | – | –
O=C(O)c1ccccc1O [SA, salicylic acid] | substantially not react; also recorded: substantially not proceeded | – | – | – | –
S-adenosyl methionine [SAM] | – | 70 | 84 | 6.3 | –
jasmonic acid [(±)JA] | high reactivity | 15 | 30 | 38.5 | no effect
